# Measured values from patent US20250145676A1, “FUNCTIONAL EXPRESSION OF ECTOPIC TMC1 AND TMC2 IN HETEROLOGOUS CELLS” (The Hong Kong University of Science and Technology, priority 2023, published 2025).
# Molecular target: T1, Fyn-mTMC2-mCherry+mTMIE channel (Mus musculus, UniProt Q8R4P4)
# T1 construct: expressed in transfected cells; host or cells: PK-HEK293T (PIEZO1-knockout HEK293T)
# T1 sequence (Q8R4P4 1-888): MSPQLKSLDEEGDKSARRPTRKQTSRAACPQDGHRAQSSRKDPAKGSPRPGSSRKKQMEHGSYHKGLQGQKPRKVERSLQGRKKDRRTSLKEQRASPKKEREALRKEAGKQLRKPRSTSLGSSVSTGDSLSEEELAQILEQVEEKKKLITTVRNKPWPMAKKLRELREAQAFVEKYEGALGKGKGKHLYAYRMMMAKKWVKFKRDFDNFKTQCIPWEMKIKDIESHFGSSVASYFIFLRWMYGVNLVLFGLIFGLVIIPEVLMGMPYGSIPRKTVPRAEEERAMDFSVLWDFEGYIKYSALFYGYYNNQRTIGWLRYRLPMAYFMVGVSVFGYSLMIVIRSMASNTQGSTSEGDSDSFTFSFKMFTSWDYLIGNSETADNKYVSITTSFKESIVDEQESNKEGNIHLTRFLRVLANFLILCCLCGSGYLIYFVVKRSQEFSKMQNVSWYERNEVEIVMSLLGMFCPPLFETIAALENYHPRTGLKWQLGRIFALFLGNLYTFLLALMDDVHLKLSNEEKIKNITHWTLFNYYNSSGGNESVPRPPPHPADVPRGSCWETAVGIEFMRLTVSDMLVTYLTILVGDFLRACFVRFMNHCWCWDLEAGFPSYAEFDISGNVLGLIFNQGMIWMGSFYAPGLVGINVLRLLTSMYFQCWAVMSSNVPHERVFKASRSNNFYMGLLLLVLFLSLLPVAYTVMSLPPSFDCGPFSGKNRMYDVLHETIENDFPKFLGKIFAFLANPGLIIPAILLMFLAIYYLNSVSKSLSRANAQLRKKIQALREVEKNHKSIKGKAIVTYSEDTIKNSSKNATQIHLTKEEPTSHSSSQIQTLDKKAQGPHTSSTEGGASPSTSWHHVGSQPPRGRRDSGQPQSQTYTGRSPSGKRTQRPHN
# T1 sequence (Q8K467 29-153 partner): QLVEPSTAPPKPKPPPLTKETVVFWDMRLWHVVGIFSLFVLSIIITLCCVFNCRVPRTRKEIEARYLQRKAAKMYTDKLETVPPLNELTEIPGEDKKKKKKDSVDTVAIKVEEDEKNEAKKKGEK
# Test: Whole-cell poking patch-clamp assay, DHS sensitivity of MS currents
# Assay type: cell-based
# Details: 2 mM DHS in the bath; PK-HEK293T cells co-expressing Fyn-mTMC2-mCherry and mTMIE; 4 experiments, p=0.0044
# Description: Briefly, PK-HEK293T cells were incubated for 24 h after transfection before performing the whole-cell patch-clamp assay at room temperature. For co-transfection of two plasmids, the w/w ratio of TMC1/2 plasmids and TMIE plasmid was 3:1. The bath solution contained (in mM) 137 NaCl, 5.8 KCl, 0.7 NaH2PO4, 10 HEPES, 1.3 CaCl2, 0.9 MgCl2, 5.6 glucose (pH 7.3 with NaOH); the pipette solution contained (in mM) 137 CsCl, 0.1 EGTA, 10 HEPES, 3.5 MgCl2 (pH 7.3 with CsOH). The recording glass pipettes (1B150-4 Borosilicate Glass Capillaries, World Precision Instruments) were pulled and polished using a pipette puller (DMZ, Zeitz Instruments) and featured a resistance of 3-5 MQ. The mechanical stimulus was applied by poking cells with a fire-polished glass probe with a tip diameter of 2-3 μm. […] The reversal potentials were calculated using Vpipette at zero current with correction for the junction potential of the pipette and bath solutions (+1.2 mV for whole cell recording). Data were analyzed with Clampfit 10.7 (Molecular Devices). For the measurement of the inactivation time constant, all current responses, except for traces with a noticeable shift in baseline, were individually calculated and averaged.
structure (smiles),measurement,value
"CN[C@@H]1[C@H](O[C@H]2[C@H](O[C@H]3[C@H](O)[C@@H](O)[C@H](NC(=N)N)[C@@H](O)[C@@H]3NC(=N)N)O[C@@H](C)[C@]2(O)CO)O[C@@H](CO)[C@H](O)[C@H]1O [DHS, dihydrostreptomycin]",DHS-sensitivity of whole-cell MS currents,DHS-sensitive
